# From patent publication US6878522B2, “Methods for the identification of compounds useful for the treatment of disease states mediated by prostaglandin D2” (priority 2000, dated 2005)
# What was measured:
# CRTH2 [1] = target: T1, CRTH2 (Homo sapiens, UniProt Q9Y5Y4); assay: [Ca2+]i mobilization assay in 300-19 cells expressing CRTH2; assay type: cell-based; conditions: CRTH2 stable cell line (300-19 transfectants)
# T1 construct: prolactin (prolac) signal peptide (N); expressed in transfected cells; host or cells: 300-19 cells (transformed murine pre-B lymphocytes)
# T1 sequence (Q9Y5Y4 1-395): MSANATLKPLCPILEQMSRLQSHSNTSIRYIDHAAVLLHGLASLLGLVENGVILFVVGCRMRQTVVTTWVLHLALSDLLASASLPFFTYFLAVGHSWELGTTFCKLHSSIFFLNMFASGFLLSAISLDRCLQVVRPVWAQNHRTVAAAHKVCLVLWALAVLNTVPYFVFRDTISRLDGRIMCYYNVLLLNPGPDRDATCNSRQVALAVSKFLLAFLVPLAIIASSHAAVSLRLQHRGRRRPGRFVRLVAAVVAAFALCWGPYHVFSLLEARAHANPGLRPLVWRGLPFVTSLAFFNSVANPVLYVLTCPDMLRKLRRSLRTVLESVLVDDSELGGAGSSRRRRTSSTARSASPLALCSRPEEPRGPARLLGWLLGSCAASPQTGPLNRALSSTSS
# Method: The ratio of fluorescence produced by the calcium-bound dye to that produce by the unbound dye is used to estimate the intracellular calcium concentration. In one embodiment, for example, the following method can be used. Cells that express CRTH2 are collected, and resuspended in fresh media at ˜2×10^5/ml the day before performing the calcium flux assay. Cells are incubated at 37° C. for not longer than 20-30 minutes, and then spun down and resuspended in 50 ml fresh PTI buffer (Hank's Buffer, pH 7.2-7.4; 10 mM Hepes; 1.6 mM CaCl2) containing Indo-1 AM, pre-warmed to 37° C., at a concentration of 10 million per ml. Cells are excited, and fluorescence is measured using a fluorimeter (Photon Technology Corporation, International). After the readout has stabilized, the time axis is reset, and PGD2 is added at a specific time point (e.g., 20 seconds). After response, the following reagents are added to the cuvette, to release and chelate total calcium, in the following order: 20 μl of 18% Triton X-100, 20 μl of 3M Tris, pH 8.5, and 20 μl of 0.5 M EGTA, pH 8.5. The experiment is repeated in the presence and the absence of a test compound.
# Using 300-19 cells (transformed pre-B lymphocytes) expressing CRTH2, a number of mast cell and non-mast cell-derived mediators were screened in a [Ca^2+]i mobilization assay. […]
# CRTH2 [2] = target: T1, CRTH2; assay: Competition with 3H-PGD2 binding at the CRTH2 receptor (Examples 6-9); conditions: control, cold PGD2, 8 trials
# Method: To directly determine the binding affinity of CRTH2 for PGD2, the following binding assay was used. Transfected and parental 300-19 cells were washed twice at room temperature with assay buffer, and resuspended at a concentration of 2×10^7 cells/ml. Using a 96-well U-bottom polypropylene plate (Costar, Corning Inc., Acton, Mass.), the assay was set up as follows: 50 μl of vehicle (0.3% DMSO in assay buffer, total wells) or of […] cold PGD2 (NS wells); 50 μl cells (2×10^7 cells/ml for 10^6 cells per well); 50 μl 6 nM [3H]-PGD2. The plate was allowed to incubate for 20 min at RT before centrifugation (2800 rpm, Sorval RT6000, 5 min, 4° C.). The plate was harvested (Packard Unifilter plate GF/C, previously soaked in 3% PEI for at least 1 hr) with cold assay buffer using a Packard Filtermate Cell Harvester (6×150 μl buffer wash per well). The filterplate was dried overnight. After the addition of 50 μl scintillation fluid (Packard Microscint 0), the plate was counted in a Packard Topcount scintillation counter (1 min per well). […] The solutions of labeled PGD2 and unlabeled “cold” PGD2 were prepared as follows: 10 μl of [^3H]-PGD2 (Amersham lot # TRK734 162 Ci/mmol, 0.1 Ci/ml in methanol: water: acetonitrile (3:2:1), 617 nM) per ml assay buffer was used to prepare a solution of [^3H]-PGD2 at a concentration of 6 nM (50 μl/well for final conc. of 2 nM); cold PGD2 (Biomol #PG-005, lot # P4653) was dissolved in DMSO for a stock of 10 mM (stored at −20° C.). The 10 mM stock was diluted 3:1000 to obtain a final concentration of […] (50 μl/well for final conc. of […]). Assay buffer: Hank's balanced saline supplemented with HEPES and sodium bicarbonate: 100 ml/L of 10× Hank's Balanced saline (with Ca^+2, Mg^+2); 10 ml/L of 1M HEPES; 4.7 ml/L of 7.5% Sodium Bicarbonate.
# In the assay, the capacity of each D-ring compound to compete with binding of ^3H-PGD2 was measured at both the CRTH2 and DP receptors, and an IC50 value (in μM) was determined. […] The binding assay procedure of Example 1 was used. Preferably, the ratio of IC50 at CRTH2 to IC50 at DP is less than about twenty, and more preferably is […].
# CRTH2 [3] = target: T1, CRTH2; assay: [3H]-PGD2 binding to 300-19 cells transfected with CRTH2
# Method: In a preferred embodiment, a binding assay can be performed as follows: • (a) 300-19 cells (see below) that transiently express CRTH2 are pelleted, and washed twice at room temperature with assay buffer (Hank's balanced saline, including Ca^+2 and Mg^+2, and supplemented with HEPES and sodium bicarbonate). The cells are resuspended at a concentration of 2×10^7 cells/ml. […] After the addition of 50 μl scintillation fluid, the plate is counted in a scintillation counter (1 min per well). […]
# To directly determine the binding affinity of CRTH2 for PGD2, the following binding assay was used. […] After the addition of 50 μl scintillation fluid (Packard Microscint 0), the plate was counted in a Packard Topcount scintillation counter (1 min per well). […]
# The receptor concentration was calculated to be 79,554 sites/cell.
# DP receptor = target: T2, DP receptor (Homo sapiens, UniProt Q13258); assay: Competition with 3H-PGD2 binding at the DP receptor (Examples 6-9); conditions: control, cold PGD2, 7 trials
# T2 sequence (Q13258 1-359): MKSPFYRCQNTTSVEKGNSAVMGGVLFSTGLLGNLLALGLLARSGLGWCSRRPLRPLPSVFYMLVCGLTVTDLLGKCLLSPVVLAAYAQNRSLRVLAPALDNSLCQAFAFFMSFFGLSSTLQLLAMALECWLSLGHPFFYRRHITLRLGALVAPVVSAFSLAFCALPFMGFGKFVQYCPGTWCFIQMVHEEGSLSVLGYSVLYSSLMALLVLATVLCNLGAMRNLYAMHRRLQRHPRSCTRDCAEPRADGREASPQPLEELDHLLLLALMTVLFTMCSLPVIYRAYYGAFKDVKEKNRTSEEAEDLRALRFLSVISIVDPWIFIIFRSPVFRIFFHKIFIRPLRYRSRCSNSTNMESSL
# Method: To directly determine the binding affinity of CRTH2 for PGD2, the following binding assay was used. Transfected and parental 300-19 cells were washed twice at room temperature with assay buffer, and resuspended at a concentration of 2×10^7 cells/ml. Using a 96-well U-bottom polypropylene plate (Costar, Corning Inc., Acton, Mass.), the assay was set up as follows: 50 μl of vehicle (0.3% DMSO in assay buffer, total wells) or of […] cold PGD2 (NS wells); 50 μl cells (2×10^7 cells/ml for 10^6 cells per well); 50 μl 6 nM [3H]-PGD2. The plate was allowed to incubate for 20 min at RT before centrifugation (2800 rpm, Sorval RT6000, 5 min, 4° C.). The plate was harvested (Packard Unifilter plate GF/C, previously soaked in 3% PEI for at least 1 hr) with cold assay buffer using a Packard Filtermate Cell Harvester (6×150 μl buffer wash per well). The filterplate was dried overnight. After the addition of 50 μl scintillation fluid (Packard Microscint 0), the plate was counted in a Packard Topcount scintillation counter (1 min per well). […]
# In the assay, the capacity of each D-ring compound to compete with binding of ^3H-PGD2 was measured at both the CRTH2 and DP receptors, and an IC50 value (in μM) was determined. […]
smiles,measurement,setting,value
"CCCCC[C@H](O)/C=C/[C@H]1C(=O)C[C@H](O)[C@@H]1C/C=C\CCCC(=O)O [PGD2, prostaglandin D2]",EC50,CRTH2 [1],15 nM
same,IC50,CRTH2 [2],10.7 nM
same,IC50,"CRTH2 [3]; 300-19 CRTH2 transfectants, 2 nM [3H]-PGD2, room temperature",18 nM
same,Kd,"CRTH2 [3]; CRTH2 transfectant, read-out: Kd of [3H]-PGD2 binding (Scatchard plot)",18.1 nM
same,IC50,DP receptor,23.4 nM
